Converted amounts (≈) assume the structure as drawn.
Experiments:
[1] = tested on: Mucor; assay: Fungicidal activity against Mucor; format: functional
[2] = tested on: Cunninghamella; assay: Antifungal activity against Cunninghamella by EUCAST method; format: functional
[3] = tested on: Absidia; assay: Fungicidal activity against Absidia; format: functional
[4] = tested on: Mucor; assay: Antifungal activity against Mucor hyphae by EUCAST method; format: functional
[5] = tested on: Aspergillus fumigatus; assay: Antifungal activity against Aspergillus fumigatus by EUCAST method; format: functional
[6] = tested on: Rhizomucor; assay: Fungicidal activity against Rhizomucor; format: functional
[7] = tested on: Rhizopus; assay: Antifungal activity against Rhizopus hyphae by EUCAST method; format: functional
[8] = tested on: Aspergillus flavus; assay: Antifungal activity against Aspergillus flavus hyphae by EUCAST method; format: functional
[9] = tested on: Aspergillus terreus; assay: Fungicidal activity against amphotericin B-resistant Aspergillus terreus; format: functional
[10] = tested on: Rhizopus; assay: Antifungal activity against Rhizopus by EUCAST method; format: functional
[11] = tested on: Aspergillus terreus; assay: Antifungal activity against amphotericin B-resistant Aspergillus terreus hyphae by EUCAST method; format: functional
[12] = tested on: Mucor; assay: Antifungal activity against Mucor by EUCAST method; format: functional
[13] = tested on: Rhizopus; assay: Fungicidal activity against Rhizopus; format: functional
[14] = tested on: Aspergillus fumigatus; assay: Fungicidal activity against Aspergillus fumigatus; format: functional
[15] = tested on: Aspergillus niger; assay: Antifungal activity against Aspergillus niger by EUCAST method; format: functional
[16] = tested on: Aspergillus terreus; assay: Antifungal activity against amphotericin B-resistant Aspergillus terreus by EUCAST method; format: functional
[17] = tested on: Aspergillus flavus; assay: Antifungal activity against Aspergillus flavus by EUCAST method; format: functional
[18] = tested on: Aspergillus flavus; assay: Fungicidal activity against Aspergillus flavus; format: functional
[19] = tested on: Aspergillus fumigatus; assay: Antifungal activity against Aspergillus fumigatus hyphae by EUCAST method; format: functional
[20] = tested on: Cunninghamella; assay: Antifungal activity against Cunninghamella hyphae by EUCAST method; format: functional
[21] = tested on: Aspergillus niger; assay: Antifungal activity against Aspergillus niger hyphae by EUCAST method; format: functional
[22] = tested on: Cunninghamella; assay: Fungicidal activity against Cunninghamella; format: functional
[23] = tested on: Absidia; assay: Antifungal activity against Absidia by EUCAST method; format: functional
[24] = tested on: Absidia; assay: Antifungal activity against Absidia hyphae by EUCAST method; format: functional
[25] = tested on: Rhizomucor; assay: Antifungal activity against Rhizomucor hyphae by EUCAST method; format: functional
[26] = tested on: Rhizomucor; assay: Antifungal activity against Rhizomucor by EUCAST method; format: functional
[27] = tested on: Aspergillus niger; assay: Fungicidal activity against Aspergillus niger; format: functional
[28] = tested on: Aspergillus niger; assay: Antifungal activity against Aspergillus niger by broth microdilution method; format: functional
[29] = tested on: Aspergillus terreus; assay: Antifungal activity against amphotericin B-resistant Aspergillus terreus by broth microdilution method; format: functional
[30] = tested on: Aspergillus flavus; assay: Antifungal activity against Aspergillus flavus by broth microdilution method; format: functional
[31] = tested on: Plasma; assay: Plasma concentration in human; format: ADME, cell-free
[32] = tested on: Aspergillus fumigatus; assay: Antifungal activity against Aspergillus fumigatus by broth microdilution method; format: functional

SMILES: C[C@@H](c1ncncc1F)[C@](O)(Cn1cncn1)c1ccc(F)cc1F [VORICONAZOLE]
- MIC [1]: > 8 mg/L
- MIC90 [1]: > 8 mg/L
- MIC [2]: > 8 mg/L
- MIC50 [2]: > 8 mg/L
- MIC90 [2]: > 8 mg/L
- MIC [3]: > 8 mg/L
- MIC90 [3]: > 8 mg/L
- MIC [4]: > 8 mg/L
- MIC90 [4]: > 8 mg/L
- MIC50 [5]: 1 mg/L (≈ 2.86 µM)
- MIC90 [5]: 1 mg/L (≈ 2.86 µM)
- MIC [6]: > 8 mg/L
- MIC90 [6]: > 8 mg/L
- MIC [7]: > 8 mg/L
- MIC90 [7]: > 8 mg/L
- MIC90 [8]: 2 mg/L (≈ 5.73 µM)
- MIC90 [9]: 2 mg/L (≈ 5.73 µM)
- MIC [10]: > 8 mg/L
- MIC50 [10]: > 8 mg/L
- MIC90 [10]: > 8 mg/L
- MIC90 [11]: 1 mg/L (≈ 2.86 µM)
- MIC [12]: > 8 mg/L
- MIC50 [12]: > 8 mg/L
- MIC90 [12]: > 8 mg/L
- MIC [13]: > 8 mg/L
- MIC90 [13]: > 8 mg/L
- MIC90 [14]: 4 mg/L (≈ 11.5 µM)
- MIC50 [15]: 2 mg/L (≈ 5.73 µM)
- MIC90 [15]: 2 mg/L (≈ 5.73 µM)
- MIC50 [16]: 0.5 mg/L (≈ 1.43 µM)
- MIC90 [16]: 2 mg/L (≈ 5.73 µM)
- MIC50 [17]: 1 mg/L (≈ 2.86 µM)
- MIC90 [17]: 1 mg/L (≈ 2.86 µM)
- MIC90 [18]: 4 mg/L (≈ 11.5 µM)
- MIC90 [19]: 1 mg/L (≈ 2.86 µM)
- MIC [20]: > 8 mg/L
- MIC90 [20]: > 8 mg/L
- MIC90 [21]: 4 mg/L (≈ 11.5 µM)
- MIC [22]: > 8 mg/L
- MIC90 [22]: > 8 mg/L
- MIC [23]: > 8 mg/L
- MIC50 [23]: > 8 mg/L
- MIC90 [23]: > 8 mg/L
- MIC [24]: > 8 mg/L
- MIC90 [24]: > 8 mg/L
- MIC [25]: > 8 mg/L
- MIC90 [25]: > 8 mg/L
- MIC [26]: > 8 mg/L
- MIC50 [26]: > 8 mg/L
- MIC90 [26]: > 8 mg/L
- MIC90 [27]: 8 mg/L (≈ 22.9 µM)

SMILES: C[C@@H](c1nc(-c2ccc(C#N)cc2)cs1)[C@](O)(Cn1cncn1)c1cc(F)ccc1F [ISAVUCONAZOLE]
- MIC90 [1]: > 8 mg/L
- MIC50 [2]: 4 mg/L (≈ 9.14 µM)
- MIC90 [2]: > 8 mg/L
- MIC90 [3]: > 8 mg/L
- MIC90 [4]: > 8 mg/L
- MIC50 [5]: 1 mg/L (≈ 2.29 µM)
- MIC90 [5]: 1 mg/L (≈ 2.29 µM)
- MIC90 [6]: > 8 mg/L
- MIC90 [7]: > 8 mg/L
- MIC90 [8]: 2 mg/L (≈ 4.57 µM)
- MIC90 [9]: 2 mg/L (≈ 4.57 µM)
- MIC50 [10]: 4 mg/L (≈ 9.14 µM)
- MIC90 [10]: > 8 mg/L
- MIC90 [11]: 2 mg/L (≈ 4.57 µM)
- MIC [28]: 2.36 mg/L (≈ 5.39 µM)
- MIC50 [12]: > 8 mg/L
- MIC90 [12]: > 8 mg/L
- MIC90 [13]: > 8 mg/L
- MIC [29]: 0.68 mg/L (≈ 1.55 µM)
- MIC [30]: 0.76 mg/L (≈ 1.74 µM)
- MIC [14]: 1 mg/L (≈ 2.29 µM)
- MIC90 [14]: 1 mg/L (≈ 2.29 µM)
- MIC50 [15]: 2 mg/L (≈ 4.57 µM)
- MIC90 [15]: 4 mg/L (≈ 9.14 µM)
- MIC50 [16]: 0.5 mg/L (≈ 1.14 µM)
- MIC90 [16]: 2 mg/L (≈ 4.57 µM)
- MIC50 [17]: 1 mg/L (≈ 2.29 µM)
- MIC90 [17]: 2 mg/L (≈ 4.57 µM)
- MIC90 [18]: 2 mg/L (≈ 4.57 µM)
- MIC90 [19]: 1 mg/L (≈ 2.29 µM)
- Cp [31]: > 1.7 µg/mL
- MIC90 [20]: > 8 mg/L
- MIC90 [21]: 8 mg/L (≈ 18.3 µM)
- MIC [32]: 0.63 mg/L (≈ 1.44 µM)
- MIC90 [22]: > 8 mg/L
- MIC50 [23]: 4 mg/L (≈ 9.14 µM)
- MIC90 [23]: > 8 mg/L
- MIC90 [24]: > 8 mg/L
- MIC90 [25]: > 8 mg/L
- MIC50 [26]: > 8 mg/L
- MIC90 [26]: > 8 mg/L
- MIC90 [27]: > 8 mg/L

SMILES: CC[C@@H]([C@H](C)O)n1ncn(-c2ccc(N3CCN(c4ccc(OC[C@@H]5CO[C@@](Cn6cncn6)(c6ccc(F)cc6F)C5)cc4)CC3)cc2)c1=O [POSACONAZOLE]
- MIC90 [1]: > 8 mg/L
- MIC [2]: 1 mg/L (≈ 1.43 µM)
- MIC50 [2]: 1 mg/L (≈ 1.43 µM)
- MIC90 [2]: 1 mg/L (≈ 1.43 µM)
- MIC [3]: 4 mg/L (≈ 5.71 µM)
- MIC90 [3]: 4 mg/L (≈ 5.71 µM)
- MIC90 [4]: > 8 mg/L
- MIC50 [5]: 0.5 mg/L (≈ 0.713 µM)
- MIC90 [5]: 1 mg/L (≈ 1.43 µM)
- MIC90 [6]: > 8 mg/L
- MIC90 [7]: > 8 mg/L
- MIC90 [8]: 1 mg/L (≈ 1.43 µM)
- MIC90 [9]: 2 mg/L (≈ 2.85 µM)
- MIC50 [10]: 2 mg/L (≈ 2.85 µM)
- MIC90 [10]: 4 mg/L (≈ 5.71 µM)
- MIC90 [11]: 1 mg/L (≈ 1.43 µM)
- MIC50 [12]: 1 mg/L (≈ 1.43 µM)
- MIC90 [12]: 1 mg/L (≈ 1.43 µM)
- MIC90 [13]: > 8 mg/L
- MIC90 [14]: 2 mg/L (≈ 2.85 µM)
- MIC [15]: 0.25 mg/L (≈ 0.357 µM)
- MIC50 [15]: 0.25 mg/L (≈ 0.357 µM)
- MIC90 [15]: 0.5 mg/L (≈ 0.713 µM)
- MIC [16]: 0.125 mg/L (≈ 0.178 µM)
- MIC50 [16]: 0.125 mg/L (≈ 0.178 µM)
- MIC90 [16]: 0.5 mg/L (≈ 0.713 µM)
- MIC50 [17]: 0.125 mg/L (≈ 0.178 µM)
- MIC90 [17]: 0.5 mg/L (≈ 0.713 µM)
- MIC90 [18]: 2 mg/L (≈ 2.85 µM)
- MIC90 [19]: 0.5 mg/L (≈ 0.713 µM)
- MIC90 [20]: 8 mg/L (≈ 11.4 µM)
- MIC [21]: 1 mg/L (≈ 1.43 µM)
- MIC90 [21]: 1 mg/L (≈ 1.43 µM)
- MIC [22]: > 8 mg/L
- MIC90 [22]: 8 mg/L (≈ 11.4 µM)
- MIC [23]: 0.5 mg/L (≈ 0.713 µM)
- MIC50 [23]: 0.5 mg/L (≈ 0.713 µM)
- MIC90 [23]: 1 mg/L (≈ 1.43 µM)
- MIC [24]: 4 mg/L (≈ 5.71 µM)
- MIC90 [24]: 4 mg/L (≈ 5.71 µM)
- MIC90 [25]: 8 mg/L (≈ 11.4 µM)
- MIC [26]: 1 mg/L (≈ 1.43 µM)
- MIC50 [26]: 1 mg/L (≈ 1.43 µM)
- MIC90 [26]: 4 mg/L (≈ 5.71 µM)
- MIC90 [27]: 4 mg/L (≈ 5.71 µM)

Source: ChEMBL document CHEMBL1649138, “In vitro activity of Isavuconazole against Aspergillus species and zygomycetes according to the methodology of the European Committee on Antimicrobial Susceptibility Testing” (Antimicrob Agents Chemother, 2009)
